Assay results as given in patent US20220168243A1 (priority 2020, published 2022).

Assays:
SARS-CoV-2 = assay type: cell-based, SARS-CoV-2 (USA-WA1/2020)
[1] = system: coronaviruses (MERS; SARS-1; SARS-2); conditions: cited from earlier work
Vero E6 cells = test: Toxicity: CellTiter-Blue Cell Viability Assay

Row | SMILES | % Inhibition at HIGHEST Non-toxic Concentration (SARS-CoV-2) | CoV Inhibition [1] | TOXICITY Y/N (Vero E6 cells)
1 | CCCCC1C(=O)N(c2ccccc2)N(c2ccccc2)C1=O [Phenylbutazone] | 90% | – | –
2 | NC(=O)C(c1ccccc1)(c1ccccc1)[C@@H]1CCN(CCc2ccc3c(c2)CCO3)C1 [Darifenacin] | 45% | – | –
3 | Fc1ccc(C(c2ccc(F)cc2)N2CCN(C/C=C/c3ccccc3)CC2)cc1 [Flunarizine] | 80% | – | –
4 | CN(C)CCCN1c2ccccc2Sc2ccc(Cl)cc21 [chlorpromazine] | – | SARS-2; | –
5 | CCN(CC)Cc1cc(Nc2ccnc3cc(Cl)ccc23)ccc1O [amodiaquine] | – | SARS-2; and MERS | –
6 | CC(COc1ccccc1)N(CCCl)Cc1ccccc1 (stereo not shown) [Phenoxybenzamine] | 95% | – | –
7 | CCN(CCO)CCCC(C)Nc1ccnc2cc(Cl)ccc12 (stereo not shown) [hydroxychloroquine] | – | SARS-2; and MERS | –
8 | CN(C)CCCN1c2ccccc2CCc2ccc(Cl)cc21 [clomipramine] | – | MERS | –
9 | CC(C)COCC(CN(Cc1ccccc1)c1ccccc1)N1CCCC1 (stereo not shown) [Bepridil, reference compound] | 60% | – | –
10 | C=CCc1ccccc1OCC(O)CNC(C)C (stereo not shown) [alprenolol] | – | MERS | –
11 | CCSc1ccc2c(c1)N(CCCN1CCN(C)CC1)c1ccccc1S2 [thiethylperazine] | – | SARS-2; and MERS | –
12 | Cc1ccc(NC(=O)c2ccc(CN3CCN(C)CC3)cc2)cc1Nc1nc(-c2cccnc2)cs1 [Masitinib] | 90% | – | –
13 | CC(C)N1CCN(c2ccc(OCC3COC(Cn4cncn4)(c4ccc(Cl)cc4Cl)O3)cc2)CC1 (stereo not shown) [terconazole, reference compound] | – | MERS; SARS-1 | –
14 | CCN(CC)CCCC(C)Nc1ccnc2cc(Cl)ccc12 (stereo not shown) [chloroquine] | – | MERS | –
15 | CC(CN1c2ccccc2Sc2ccccc21)N(C)C (stereo not shown) [promethazine] | – | MERS | –
16 | COc1cc2nc(N3CCN(C(=O)C4COc5ccccc5O4)CC3)nc(N)c2cc1OC (stereo not shown) [doxazosin, reference compound] | – | MERS; SARS-1 | –
17 | CC(C)NCC(O)COc1cccc2ccccc12 (stereo not shown) [propranolol, reference compound] | – | MERS; SARS-1 | –
18 | CN(C)CCCN1c2ccccc2Sc2ccccc21 [Promazine, reference compound] | 70% | MERS; SARS-1 and MERS | Very weak
19 | Cc1cn(-c2cc(NC(=O)c3ccc(C)c(Nc4nccc(-c5cccnc5)n4)c3)cc(C(F)(F)F)c2)cn1 [Nilotinib] | 60% | – | –
20 | CCN(CCCc1ccccc1)CCCc1ccccc1 [Alverine] | 30% | – | –
21 | CNCCCN1c2ccccc2CCc2ccccc21 [Desipramine, reference compound] | 60% | MERS; SARS-1 and MERS | Very weak
22 | COc1c(C)c2c(c(O)c1C/C=C(\C)CCC(=O)OCCN1CCOCC1)C(=O)OC2 [mycophenolate_mofetil, reference compound] | – | MERS; SARS-1 | –
23 | OCCN1CCN(CCCN2c3ccccc3Sc3ccc(C(F)(F)F)cc32)CC1 [fluphenazine] | – | SARS-2; and MERS | –
24 | OCCOc1ccc(/C(=C(/CCCl)c2ccccc2)c2ccccc2)cc1 [Ospemifene] | 45% | – | –
